Reference: patent US7858644B2, “EP4 receptor antagonists” (Asterand UK Limited, priority 2003, dated 2010)

How the values were obtained:
human EP4 receptor = target: T1, human EP4 receptor (Homo sapiens, UniProt P35408); assay: Binding ability to human EP4 receptor ([3H]PGE2 displacement); details: read-out: pKi EP4 (converted)
T1 construct: expressed in transfected cells
Method: (§1) Membranes were prepared from cells stably transfected with human EP receptor cDNA. In brief, cells were cultured to confluency, scraped from culture flasks, and centrifuged (800 g, 8 minutes, 4° C.). Cells were twice washed in ice cold homogenisation buffer containing 10 mMTris-HCl, 1 mM EDTA. 2Na, 250 mM sucrose, 1 mM PMSF, 0.3 mM indomethacin, pH 7.4, homogenised and re-centrifuged as before. The supernatant was stored on ice and pellets re-homogenised and re-spun. Supernatants were pooled and centrifuged at 40000 g, 10 minutes, 4° C. Resultant membrane pellets were stored at −80° C. until use.
(§2) Incubations were performed at suitable temperatures and for suitable times to allow equilibrium to be reached. Non-specific binding was determined in the presence of 10 uM PGE2. Bound and free radiolabel was separated by vacuum manifold filtration using appropriate wash buffers, and bound radiolabel was determined by scintillation counting. Constituents of each of the buffers are included in table 1 below.
(§3) This approach follows that set out in Kenakin, T. P., Pharmacologic analysis of drug receptor interaction. Raven Press, New York, 2nd edition.

human EP2 receptor = target: T2, human EP2 receptor (Homo sapiens, UniProt P43116); assay: Binding ability to human EP2 receptor ([3H]PGE2 displacement); details: read-out: pKi EP2 (converted)
T2 construct: expressed in transfected cells
T2 sequence (P43116 whole entry): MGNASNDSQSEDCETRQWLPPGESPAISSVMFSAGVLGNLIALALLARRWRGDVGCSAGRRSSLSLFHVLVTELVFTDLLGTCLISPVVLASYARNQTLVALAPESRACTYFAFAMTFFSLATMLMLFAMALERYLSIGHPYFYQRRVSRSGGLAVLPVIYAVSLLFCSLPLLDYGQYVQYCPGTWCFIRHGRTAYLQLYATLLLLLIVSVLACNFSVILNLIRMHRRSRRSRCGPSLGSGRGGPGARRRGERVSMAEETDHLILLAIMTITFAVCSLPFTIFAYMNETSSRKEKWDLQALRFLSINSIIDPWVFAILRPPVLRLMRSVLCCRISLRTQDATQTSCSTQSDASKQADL
Method: as §1
as §2, with “For assay, membranes expressing human EP4, EP3, EP2 or EP1 receptors were incubated in Millipore (MHVBN45) plates containing assay buffer, radiolabelled [^3H]PGE2 and 0.1 to 10 000 nM concentrations of compounds. Incubations” for “Incubations”
as §3

human EP3 receptor = target: T3, human EP3 receptor (Homo sapiens, UniProt P43115); assay: Binding ability to human EP3 receptor ([3H]PGE2 displacement); details: membranes from cells stably transfected with human EP receptor cDNA; [3H]PGE2 2.5 nM; Cheng-Prusoff from IC50; read-out: pKi EP3 (converted)
T3 construct: expressed in transfected cells
T3 sequence (P43115 1-390): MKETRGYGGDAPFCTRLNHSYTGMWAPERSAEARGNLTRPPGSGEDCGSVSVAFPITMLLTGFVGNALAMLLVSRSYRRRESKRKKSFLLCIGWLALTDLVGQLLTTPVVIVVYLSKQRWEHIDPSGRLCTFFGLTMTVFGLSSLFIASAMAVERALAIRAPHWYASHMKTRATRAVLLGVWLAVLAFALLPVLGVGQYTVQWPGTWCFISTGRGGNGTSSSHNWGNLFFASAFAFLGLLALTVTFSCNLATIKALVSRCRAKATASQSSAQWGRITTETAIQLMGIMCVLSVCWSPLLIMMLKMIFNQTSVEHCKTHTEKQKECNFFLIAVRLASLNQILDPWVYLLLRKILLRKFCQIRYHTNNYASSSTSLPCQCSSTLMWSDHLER
Method: as §1
as §2, with “For assay, membranes expressing human EP4, EP3, EP2 or EP1 receptors were incubated in Millipore (MHVBN45) plates containing assay buffer, radiolabelled [^3H]PGE2 and 0.1 to 10 000 nM concentrations of compounds. Incubations” for “Incubations”
as §3

T1 sequence (P35408 whole entry): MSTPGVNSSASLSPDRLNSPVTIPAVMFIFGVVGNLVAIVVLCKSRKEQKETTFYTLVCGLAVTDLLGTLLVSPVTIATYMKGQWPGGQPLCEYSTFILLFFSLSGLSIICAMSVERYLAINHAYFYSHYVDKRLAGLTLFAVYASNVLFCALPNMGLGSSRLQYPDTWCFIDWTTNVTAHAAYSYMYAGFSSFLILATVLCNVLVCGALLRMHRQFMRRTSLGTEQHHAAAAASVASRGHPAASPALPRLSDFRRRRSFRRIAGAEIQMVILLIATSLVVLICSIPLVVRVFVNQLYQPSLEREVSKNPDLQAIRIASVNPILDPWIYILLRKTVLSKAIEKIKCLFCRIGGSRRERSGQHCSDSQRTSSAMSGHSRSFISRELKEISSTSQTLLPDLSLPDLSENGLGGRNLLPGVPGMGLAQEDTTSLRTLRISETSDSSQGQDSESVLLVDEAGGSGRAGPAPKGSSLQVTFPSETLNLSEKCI

For `COc1ccc(-c2ccc(NC(=O)c3cc(C(=O)NS(=O)(=O)c4ccccc4)oc3C)cc2)cc1` [Compound 25, 5-Benzenesulfonylaminocarbonyl-2-methyl-furan-3-carboxylic acid (4′-methoxy-biphenyl-4-yl)-amide], the Ki (human EP4 receptor) was < 0.316 µM, the Ki (human EP2 receptor) was > 10 µM and the Ki (human EP3 receptor) was > 10 µM.
`Cc1oc(CCC(=O)NS(=O)(=O)c2ccccc2)cc1COc1ccc(-c2ccccc2)cc1` [Compound 38, N-{3-[4-(Biphenyl-4-yloxymethyl)-5-methyl-furan-2-yl]-propionyl}-benzene sulfonamide] was tested, and the Ki (human EP4 receptor) was < 1 µM, the Ki (human EP2 receptor) was > 3.16 µM and the Ki (human EP3 receptor) was > 10 µM.
In the case of `COc1ccc(-c2ccc(OCc3cc(CCC(=O)O)oc3C)cc2)cc1` [Compound 39, 3-[4-(4′-Methoxy-biphenyl-4-yloxymethyl)-5-methyl-furan-2-yl]-propionic acid], the Ki (human EP4 receptor) is reported as < 0.1 µM, the Ki (human EP2 receptor) is reported as > 10 µM and the Ki (human EP3 receptor) is reported as > 10 µM.
`COc1ccc(-c2ccc(OCc3cc(CCC(=O)NS(=O)(=O)c4ccccc4)oc3C)cc2)cc1` [Compound 40, N-{3-[4-(4′-Methoxy-biphenyl-4-yloxymethyl)-5-methyl-furan-2-yl]-propionyl}-benzene sulfonamide] was tested, and the Ki (human EP4 receptor) was < 0.1 µM, the Ki (human EP2 receptor) was > 10 µM and the Ki (human EP3 receptor) was > 10 µM.
In the case of `Cc1oc(/C=C/C(=O)O)cc1COc1ccc(-c2ccccc2)cc1` [Compound 42, 3-[4-(Biphenyl-4-yloxymethyl)-5-methyl-furan-2-yl]-acrylic acid], the Ki (human EP4 receptor) is reported as < 0.1 µM, the Ki (human EP2 receptor) is reported as > 10 µM and the Ki (human EP3 receptor) is reported as > 10 µM.
With `COc1ccc(-c2ccc(OCc3cc(/C=C/C(=O)O)oc3C)cc2)cc1` [Compound 43, 3-[4-(4′-Methoxy-biphenyl-4-yloxymethyl)-5-methyl-furan-2-yl]-acrylic acid] the Ki (human EP4 receptor) was < 0.1 µM, the Ki (human EP2 receptor) was > 10 µM and the Ki (human EP3 receptor) was > 10 µM.
In the case of `Cc1oc(S(=O)(=O)NC(=O)c2ccccc2)cc1COc1ccc(-c2ccccc2)cc1` [Compound 46, 4-(Biphenyl-4-yloxymethyl)-5-methyl-furan-2-sulfonic acid benzoylamide], the Ki (human EP4 receptor) is reported as < 0.1 µM, the Ki (human EP2 receptor) is reported as > 10 µM and the Ki (human EP3 receptor) is reported as > 10 µM.
With `Cc1oc(C(=O)O)cc1COc1ccc2c(c1)oc1ccccc12` [Compound 50, 4-(Dibenzofuran-3-yloxymethyl)-5-methyl-furan-2-carboxylic acid] the Ki (human EP4 receptor) was < 3.16 µM, the Ki (human EP2 receptor) was > 3.16 µM and the Ki (human EP3 receptor) was > 10 µM.
In the case of `COc1ccc(-c2ccc(OCc3cc(C(=O)O)oc3C)cn2)cc1` [Compound 56, 4-[6-(4-Methoxy-phenyl)-pyridin-3-yloxymethyl]-5-methyl-furan-2-carboxylic acid], the Ki (human EP4 receptor) is reported as < 3.16 µM, the Ki (human EP2 receptor) is reported as > 31.6 µM and the Ki (human EP3 receptor) is reported as > 10 µM.
For `CCCC(=O)NS(=O)(=O)c1cc(COc2ccc(-c3ccccc3)cc2)c(C)o1` [Compound 61, 4-(Biphenyl-4-yloxymethyl)-5-methyl-furan-2-sulphonic acid butyryl-amide], the Ki (human EP4 receptor) was < 1 µM, the Ki (human EP2 receptor) was > 10 µM and the Ki (human EP3 receptor) was > 10 µM.
`Cc1oc(S(=O)(=O)NC(=O)Cc2ccccc2)cc1COc1ccc(-c2ccccc2)cc1` [Compound 62, 4-(Biphenyl-4-yloxymethyl)-5-methyl-furan-2-sulphonic acid phenylacetyl-amide] was tested, and the Ki (human EP4 receptor) was < 0.1 µM, the Ki (human EP2 receptor) was > 10 µM and the Ki (human EP3 receptor) was > 10 µM.
For `Cc1noc(C)c1C(=O)NS(=O)(=O)c1cc(COc2ccc(-c3ccccc3)cc2)c(C)o1` [Compound 63, 4-(Biphenyl-4-yloxymethyl)-5-methyl-furan-2-sulphonic acid (3,5-dimethyl-isoxazole-4-carbonyl)-amide], the Ki (human EP4 receptor) was < 0.316 µM, the Ki (human EP2 receptor) was > 10 µM and the Ki (human EP3 receptor) was > 10 µM.
In the case of `Cc1oc(S(=O)(=O)NC(=O)c2cccs2)cc1COc1ccc(-c2ccccc2)cc1` [Compound 64, 4-(Biphenyl-4-yloxymethyl)-5-methyl-furan-2-sulphonic acid (thiophene-2-carbonyl)-amide], the Ki (human EP4 receptor) is reported as < 0.1 µM, the Ki (human EP2 receptor) is reported as > 10 µM and the Ki (human EP3 receptor) is reported as > 10 µM.
In the case of `Cc1oc(S(=O)(=O)NC(=O)c2ccncc2)cc1COc1ccc(-c2ccccc2)cc1` [Compound 67, 4-(Biphenyl-4-yloxymethyl)-5-methyl-furan-2-sulphonic acid (pyridine-4-carbonyl)-amide], the Ki (human EP4 receptor) is reported as < 1 µM, the Ki (human EP2 receptor) is reported as > 10 µM and the Ki (human EP3 receptor) is reported as > 10 µM.
`Cc1oc(S(=O)(=O)NC(=O)c2cccnc2)cc1COc1ccc(-c2ccccc2)cc1` [Compound 68, 4-(Biphenyl-4-yloxymethyl)-5-methyl-furan-2-sulphonic acid (pyridine-3-carbonyl)-amide] was tested, and the Ki (human EP4 receptor) was < 1 µM, the Ki (human EP2 receptor) was > 10 µM and the Ki (human EP3 receptor) was > 10 µM.
With `COc1ccc(-c2ccc(OCc3cc(S(=O)(=O)NC(=O)c4c(C)noc4C)oc3C)cc2)cc1` [Compound 69, 4-(4′-Methoxy-biphenyl-4-yloxymethyl)-5-methyl-furan-2-sulphonic acid (3,5-dimethyl-isoxazole-4-carbonyl)-amide] the Ki (human EP4 receptor) was < 0.1 µM.
In the case of `COc1ccc(-c2ccc(OCCc3cc(C(=O)O)oc3C)cc2)cc1` [Compound 73, 4-[2-(4′-Methoxy-biphenyl-4-yloxy)-ethyl]-5-methyl-furan-2-carboxylic acid], the Ki (human EP4 receptor) is reported as < 3.16 µM, the Ki (human EP2 receptor) is reported as > 10 µM and the Ki (human EP3 receptor) is reported as > 10 µM.
With `Cc1oc(C(=O)O)cc1CCOc1ccc2c(c1)oc1ccccc12` [Compound 74, 4-[2-(Dibenzofuran-3-yloxy)-ethyl]-5-methyl-furan-2-carboxylic acid] the Ki (human EP4 receptor) was < 3.16 µM, the Ki (human EP2 receptor) was > 10 µM and the Ki (human EP3 receptor) was > 10 µM.
In the case of `Cc1noc(C)c1S(=O)(=O)NC(=O)c1cc(COc2ccc(-c3ccc(OC(F)F)cc3)cc2)c(C)o1` [Compound 131, 3,5-Dimethyl-isoxazole-4-sulphonic acid [4-(4′-difluoromethoxy-biphenyl-4-yloxymethyl)-5-methyl-furan-2-carbonyl]-amide], the Ki (human EP2 receptor) is reported as > 3.16 µM and the Ki (human EP3 receptor) is reported as > 10 µM.
In the case of `COc1ccc(-c2ccc(OCc3cc(C(=O)NS(=O)(=O)c4ccccc4)oc3C)cc2)nc1` [Compound 132, N-{4-[4-(5-Methoxy-pyridin-2-yl)-phenoxymethyl]-5-methyl-furan-2-carbonyl}-benzenesulphonamide], the Ki (human EP2 receptor) is reported as > 10 µM and the Ki (human EP3 receptor) is reported as > 10 µM.
For `COc1ccc(-c2ccc(OCc3cc(C(=O)NS(=O)(=O)c4c(C)noc4C)oc3C)cc2)nc1` [Compound 133, 3,5-Dimethyl-isoxazole-4-sulphonic acid {4-[4-(5-methoxy-pyridin-2-yl)-phenoxymethyl]-5-methyl-furan-2-carbonyl}-amide], the Ki (human EP2 receptor) was > 10 µM and the Ki (human EP3 receptor) was > 10 µM.
With `COc1ccc(-c2ccc(OCc3cc(C(=O)NS(=O)(=O)c4ccccc4C)oc3C)cc2)nc1` [Compound 134, N-{4-[4-(5-Methoxy-pyridin-2-yl)-phenoxymethyl]-5-methyl-furan-2-carbonyl}-2-methyl-benzenesulphonamide] the Ki (human EP2 receptor) was > 10 µM and the Ki (human EP3 receptor) was > 10 µM.
With `COc1ccc(-c2ccc(OCc3cc(C(=O)NS(=O)(=O)c4ccccc4)oc3C)cc2)c(C)c1` [Compound 145, N-[4-(4′-Methoxy-2′-methyl-biphenyl-4-yloxymethyl)-5-methyl-furan-2-carbonyl]-benzenesulphonamide] the Ki (human EP2 receptor) was > 10 µM and the Ki (human EP3 receptor) was > 10 µM.
For `COc1ccc(-c2ccc(OCc3cc(C(=O)NS(=O)(=O)c4c(C)noc4C)oc3C)cc2)c(C)c1` [Compound 146, 3,5-Dimethyl-isoxazole-4-sulphonic acid [4-(4′-methoxy-2′-methyl-biphenyl-4-yloxymethyl)-5-methyl-furan-2-carbonyl]-amide], the Ki (human EP2 receptor) was > 10 µM and the Ki (human EP3 receptor) was > 10 µM.
In the case of `Cc1oc(C(=O)NS(=O)(=O)c2ccccc2)cc1CNc1ccc(-c2ccccc2)cc1` [Compound 161, N-[4-(biphenyl-4-ylaminomethyl)-5-methyl-furan-2-carbonyl]-benzenesulphonamide], the Ki (human EP2 receptor) is reported as > 10 µM and the Ki (human EP3 receptor) is reported as > 10 µM.
In the case of `Cc1ccccc1S(=O)(=O)NC(=O)c1cc(CNc2ccc(-c3ccccc3)cc2)c(C)o1` [Compound 162, N-[4-(Biphenyl-4-ylaminomethyl)-5-methyl-furan-2-carbonyl]-2-methyl-benzenesulfonamide], the Ki (human EP2 receptor) is reported as > 10 µM and the Ki (human EP3 receptor) is reported as > 10 µM.
In the case of `Cc1ccccc1S(=O)(=O)NC(=O)c1cc(CNc2ccc(-c3ccc(OC(F)F)cc3)cc2)c(C)o1` [Compound 173, N-{4-[(4′-Difluoromethoxy-biphenyl-4-ylamino)-methyl]-5-methyl-furan-2-carbonyl}-2-methyl-benzenesulphonamide], the Ki (human EP2 receptor) is reported as > 3.16 µM and the Ki (human EP3 receptor) is reported as > 10 µM.
